Data reported in article PMC8776730 (Nature Communications, 2022).

What was measured:
[1] = Nanofiber dynamic growth, ThT staining; assay type: physicochemical; details: aggregation curve with ThT trace
[2] = Critical assembly concentration (CAC) by pyrene fluorescence probe; assay type: physicochemical; details: for I1/I3: pyrene fluorescence
Text: In order to study the molecular design and their assembly behavior, we modular designed and synthesized seven molecules (Table 1), which respectively were BIVA probe: M1 (mPEG-GPAKLVFFGC(IR783)GRGD); the non- FAP-α tailoring molecule: M2 (mPEG-AGGKLVFFGC(IR783)GRGD) scrambled response tailoring motif of Gly-Pro-Ala with Ala-Gly-Gly; the non-labeling molecule of M1: M3 (mPEG-GPAKLVFFGCGRGD) removed IR783 labeling; FAP-α tailoring residue of M1: R-M1 (AKLVFFGC(IR783)GRGD); the non-targeting molecule: M4 (mPEG-GPAKLVFFGC(IR783)GDTG) scrambled targeting tailoring motif of Arg-Gly-Asp with Asp-Thr-Gly; the non-labeling molecule of M2: M5 (mPEG-AGGKLVFFGCGRGD) removed IR783 labeling; FAP-α tailoring residue of M3: R-M3 (AKLVFFGCGRGD). All the synthesized procedure (Supplementary Fig. 1) and characterizations of these seven molecules can be found in SI (Supplementary Figs. 2–8). […] Without IR783 labeling, molecules of M3 and M5 decreased the CAC value in solution relative to M1 and M2, which could be attributed to the proximity of the steric hindrance of hydrophilic IR783 to the self-assembly motif (Supplementary Fig. 9). […] The CAC was quantitatively calculated by fluorescence probe of pyrene.

MIA PaCa-2 cells [3] = assay: Cellular imaging (CLSM) of FITC-labelled molecules; assay type: cell-based
Method: To further confirm this hypothesis, the M1 and M2 were equally labeled by FITC for cell imaging (Fig. 5b). To simulate the dynamic physiological condition, the cell culture medium was replaced every 15 min. After 1 h of incubation with M1 and M2 at the same molecule molar concentration, there occurred significant differences between the two molecules (Fig. 5c). […] The huge difference can be explained by the fact that the secondary assembly rate broke the balance between the targeted ligand and receptor, and thus tended to a stable assembly interaction. The retention efficiency depended on the assembly rate constant Ka. Meanwhile, the rapid dynamic assembly of BIVA probe in situ around the cell membrane, and contributed to the efficient formation and retention of nanofibers on the cell profile. When the incubation time was delayed up to 2 h, some components could be endocytosed into the cells, but most of them were found on the membranes (Supplementary Fig. 18). […] Then, the isolated cells were collected and lysed, the extracted cell membrane fragments were stained with ThT. […] In order to verify the influence of the addition of the targeting module of the probe molecules, we explored the imaging of R-M1 and M4 on cells.
(§1) Fig. 5 The BIVA effect with enhanced targeting to pancreatic tumor cell for boundaries imaging. a Illustration of BIVA effect: active targeting and assembly/aggregate induced retention (AIR) effect. b Chemical structure of FITC labeling. c 2D and 3D confocal images of M2 with active targeting property and M1 with BIVA effect on MIA PaCa-2 cells after incubation for 1 h. d The distribution of M1 on MIA PaCa-2 cell. e ThT staining of the lysed cell membrane of MIA PaCa-2. f, Illustration of migration inhibition after treated by BIVA probe. g The image of the migrated cells after treatment of PBS (blank), M2, M4, and M1. Scale bar: 100 μm. h The pie diagram of quantitative statistical calculation of the migrated cells (blue) in different groups. The blank control was set as 100% migrated cells.
MIA PaCa-2 cells were digested with trypsin, counted with cell counting plate, diluted to 1 × 10^4 with DMEM medium, and 1 mL to 1 cm diameter confocal microscope dish was taken. The cells were incubated in […] atmosphere for 24 h. The medium containing M1 and M2 (50 μM) was replaced and incubated with the cells for 2 h. The cells were washed with PBS for 3 times. CLSM (Zeiss 710) was used to image cells under 40 × objective, excitation = 488 nm, and emission >520 nm.
Supplementary Fig. 19 ∣ CLSM images of Miapaca-2 cells treated with different molecules or M1 under different conditions. […]

[4] = Secondary structure proportions from CD spectra; assay type: physicochemical; details: calculated by Reed's Reference based on CD spectra; DI water
Text: To further evaluate the assembled structures, the corresponding circular dichroism (CD), Fourier transform infrared (FTIR) spectroscopy, and wide-angle X-ray scattering (WAXS) spectroscopy were applied. […] The FITR spectra of M1 and M3 in Fig. 3b observed the intermolecular interactions. The peaks at 1629 cm^−1, 1675 cm^−1, and 1698 cm^–1 of M3 indicated anti-parallel β-sheet structure (represent by green arrow heads), peaks at 1648 cm^−1 and 1663 cm^−1 indicated parallel beta sheet structure (represent by blue arrow heads), the existence of 1654 cm^−1 indicate α-Helix structure in M1 which verified the results deduced by CD in Fig. 3a[29],[30]. […] As a homologous sequence with amyloid β-protein (Aβ), the self-assembly motif with peptide sequence of KLVFFGCG had similar aggregation kinetics to (Aβ)42 peptide, which occurred via dynamic growth from oligomers to amyloid fibrils. The aggregation started from the freshly isolated monomers of R-M1, and precipitates were separated in 1 min and 1 h, respectively. […] After analyzed the CD spectra of M1, M3, and R-M1 (Fig. 3e), it can be clearly seen that the main secondary conformation of M1 was Random, the M3 was hybrid of Helix and Beta, and the R-M1 was Beta (Supplementary Table 1). All the results confirmed the conclusion from FTIR spectra. […] The dynamic growth procedure was like the 8-anilino-1-naphthalenesulfonic acid (ANS) stained curve (Supplementary Fig. 12). As known, ANS was sensitive to hydrophobic interaction. When R-M1 were in the initial oligomer, the fluorescence intensity of ANS increased due to the enhanced hydrophobicity. When the molecules were elongated and stacked in higher ordered nanofibrils, the blue shift of ANS in the β-sheet structures reduced the fluorescence. The molecular packing mode of well-ordered fibrils of R-M1 in Fig. 3g observed a weak reflection at 4.9 Å as laminates space and a strong broad reflection at 10.3 Å as sheet space, which was illustrated in the inserted figure. The fibril morphology was characterized by transmission electron microscopy (TEM) imaging (Fig. 3f). The statistical calculation of the fiber diameter in TEM images was 5.0 ± 0.4 nm (Supplementary Fig. 13), which was corresponded to the theoretical calculated two molecules length of R-M1. We assumed that the nanofibers were assembled by twisted R-M1 molecules centered on self-assembly motif.
The secondary structures of M1, M3 and R-M1 were verified by CD spectroscopy (JASCO Corporation, JC-1500) at room temperature with a cell path length of 1 cm. M1, […] and R-M1 were diluted to 100 μM with deionized water at 25 °C and allowed to stand for 12 h for complete assembly. Detail parameter setting were CD scale:200 mdeg/1.0Dod, measure range: 260~190 nm, scanning speed: 500 nm/min, bandwidth: 1.00 nm, and data pitch: 0.5 nm. All spectra were the average of three measurements.
Supplementary Table 1∣ Secondary structure proportions ofM1, M3 and R-M1 calculated by Reed’s Reference based on […]

MIA PaCa-2 cells [5] = assay: Transwell migration assay; assay type: cell-based; details: for migrated cells (Fig S20): MIA PaCa-2 cells
Method: as §1
In order to further understand the contribution of the active targeting and AIR effect during locating of the cells, the cell transwell experiment was used to quantitively evaluate interference of the cell migration based on M1, M2, and M4 (Fig. 5f). As expected, untreated cells were easy to migrate to the lower chamber, while the cells treated with active targeting molecule M2 and assembled molecule M4, the migration of cell were reduced. Under the same molar concentration, the M1 treatment group had the most inference on cell migration (Fig. 5g). […] Based on those results, we speculate M1 can be more enriched in the tumor site and form fibers through assembly to inhibit tumor cell migration compared to M2 and M4 which have no ability to target and adhere on the cell membrane.
Transwell migration assay occurred in chemotaxis chambers containing 24 wells. […] Bottom chambers contained DMEM medium containing 10% FBS. After 24 h of treatment with M1, M2, and M4 (150 μM), we fixed cells using 4% paraformaldehyde and stained with 0.25% crystal violet solution. The stained cells were counted using a microscope.
Supplementary Fig. 20∣ The quantitative results of the migrated cells after treatment of PBS (blank), M2, […] and
M1 (Fig 5g). The mean of results of fiveparallel experiments is shown and data were expressed as mean ± SD (n=5).
pM1 = 5.85E-06, pM2 = 5.94E-05, pM4 = 3.16 E-04, Statisticalanalysis: one-way ANOVA followed by post hoc Tukey’s
(§2) (1 picture or pasted object on this page, not shown here)

MIA PaCa-2 cells [6] = assay: Cytotoxicity, CCK-8 assay; assay type: cell-based; details: CCK-8, 24 h, at high concentration of 300 μM
Method: The cytotoxicity of M1 and M2 was evaluated using CCK-8 assay in MIA PaCa-2 cells. Cells were seeded into 96-well plates at a density of 5 × 10^4 cells per well and placed in an incubator for 14 h. Subsequently, the sample was diluted into a series of different concentrations (0, 50, 100, 150, 200, 250, 300, and 350 μM) and incubated with cells for 24 h. After that, 10 μL of CCK-8 solution was added to each well and incubated for 2 h. The absorbance of blank wells (Ab), sample wells (As) and control wells (Ac) were measured with a microplate reader at a test wavelength of 450 nm and a reference wavelength of 690 nm. The cell viability rate (%) is equal to (As -Ab) / (Ac -Ab) ×100%. All experiments were repeated in triplicate.
Supplementary Fig. 21∣ Cellviability assay of Miapaca-2 cells treated with a series concentration of M1 and M2 for 24 h.
Tested by Cell Counting Kit-8 (Beyotime, C0039) The mean of results of six parallel experiments isshown and data were
expressed as mean ± SD (n=6).
as §2

[7] = mouse, in vivo, iv, 16 mg/kg
MIA PaCa-2 tumor = details: mouse, in vivo, 16 mg/kg
Method: In order to reduce systemic error and individual difference, we constructed the subcutaneous pancreatic cancer model in mice for quantitatively calculating of the metabolic data.
All the animal experiments were performed in accordance with the Guide for the Care and Use of Laboratory Animals approved by the Committee for Animal Research of the National Center for Nanoscience and Technology. The MIA PaCa-2 tumor-bearing mice were intravenously injected with ICG, M1 and M2 (16 mg/kg), respectively for in vivo fluorescence imaging with in vivo spectrum imaging system. Finally, mice were sacrificed to collect the major organs and tumors for ex vivo fluorescence imaging.

[8] = MIA PaCa-2 cells (supplement contents: Miapaca-2 cell lysis); details: up to 2 h
[9] = tested on: Recombinant Human Fibroblast Activation Protein-α (FAP-α); assay: FAP-α in buffer: 50 mM Tris, 1 M NaCl, 1 mg/mL, BSA, pH 7.5; details: up to 12 h
[10] = MIA PaCa-2 cells / Miapaca-2 cell lysis; details: up to 2 h

For “AKLVFFGC(IR783)GRGD [R-M1, FAP-α tailoring residue of M1]”, the final plain phase [1] was greater than 30 min, the “Critical assembly concentration (CAC)” value ([2]; aqueous solution, analyzed based on pyrene fluorescence) was 37.2 µM and the I1/I3 ([2]; conc 1.56 μM) was 1.233. For the same substance, the I1/I3 ([2]; conc 12.5 μM) was 1.275, the I1/I3 ([2]; conc 25 μM) was 1.246 and the I1/I3 ([2]; conc 100 μM) was 1.302. The I1/I3 ([2]; conc 200 μM) was 1.43, the “state in the medium (solubility)” value (MIA PaCa-2 cells [3]; co-incubation with MIA PaCa-2 cells) was “insoluble suspended mixture” and the Secondary structure proportion: Beta [4] was 72%. The Secondary structure proportion: Helix [4] was 0.5%, the Secondary structure proportion: Random [4] was 0% and the Secondary structure proportion: Turn [4] was 27.5%.
With mPEG-AGGKLVFFGC(IR783)GRGD [M2] the “emigrate (migrated cells relative to blank)” value (MIA PaCa-2 cells [5]; MIA PaCa-2, 150 μM, 24 h, blank control = 1) was 0.6397, the “migrated cells (Fig S20)” value (MIA PaCa-2 cells [5]; averge of groups 1-3) was 587 and the “migrated cells (Fig S20)” value (MIA PaCa-2 cells [5]; group 1) was 547. For the same substance, the “migrated cells (Fig S20)” value (MIA PaCa-2 cells [5]; group 2) was 625, the “migrated cells (Fig S20)” value (MIA PaCa-2 cells [5]; group 3) was 589 and the cytotoxicity (MIA PaCa-2 cells [6]) was “no obvious cytotoxicity”. For the same substance, the “blood circulation half-life (t1/2)” value [7] was 1.7 ± 0.067 h, the “reduction of tumor fluorescence signal between 12 h and 120 h” value (MIA PaCa-2 tumor) was “disappeared completely” and the “time of distribution and accumulation in the tumor area” value (MIA PaCa-2 tumor; iv) was 0.1 to 24 h. The “fluorescence signal on the cell membrane” value (MIA PaCa-2 cells [3]; FITC-labelled molecules, MIA PaCa-2 cells, 1 h incubation, CLSM) was “significantly reduced the fluorescence signal”.
With mPEG-GPAKLVFFGC(IR783)GRGD the fragment found [8] was “R-M1”, the cleaved bond [9] was “Pro-Ala” and the fragment found [10] was “PEG residues”.
